Source: ChEMBL document CHEMBL1201862, “PubChem BioAssay data set” (2004)
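Results reflect a 48-hour exposure of cells in 96-well plates to compound at five concentrations. At the GI50, growth is halved.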 Activity calls are given as the source filed them. Rule as the data show it: active = GI50 up to about 1.1 µM and inactive = higher.

Tests used:
Assay in all cases: NCI-60 cell line screen, 48 h
[1] = system: A498
[2] = system: COLO 205
[3] = system: HT-29
[4] = system: KM12
[5] = system: M14
[6] = system: NCI-H23
[7] = system: OVCAR-3
[8] = system: OVCAR-4
[9] = system: OVCAR-5
[10] = system: SF-539
[11] = system: SK-MEL-2
[12] = system: SW-620
[13] = system: HCC 2998
[14] = system: HOP-62

Measured: GI50

CC(C)c1ccc(/C=C(\NC(=O)c2ccccc2)c2nc3ccccc3[nH]2)cc1
inactive: [1] 40.6 µM | [2] 35.8 µM | [3] 33.6 µM | [4] 32.2 µM | [5] 32.3 µM | [6] 26.8 µM | [7] 37.3 µM | [8] 30.2 µM | [9] 75.3 µM | [10] 77.1 µM | [11] 34.4 µM | [12] 49.4 µM

Cc1cc2c(C)nn(Cc3ccccc3)c2c(C(=O)O)c1C
inactive: [2] > 100 µM | [13] > 100 µM | [14] > 100 µM | [6] > 100 µM | [7] > 100 µM | [9] > 100 µM | [10] > 100 µM | [11] > 100 µM | [12] > 100 µM

c1ccc(C2C3=C(Nc4ncnn42)c2ccccc2C3)cc1 (stereo not drawn)
inactive: [1] 51.2 µM | [2] 11 µM | [13] 8.15 µM | [14] 31.7 µM | [3] 4.3 µM | [4] 4.68 µM | [5] 5.38 µM | [6] 15 µM | [7] 8.93 µM | [8] 95.9 µM | [9] 46.8 µM | [10] 11.4 µM | [11] 11.6 µM | [12] 4.93 µM

CC(=O)Nc1ccc(/C=c2\sc3nnc(-c4cccnc4)n3c2=O)cc1
inactive: [1] 75.2 µM | [2] 15.4 µM | [13] 20.7 µM | [14] 21.8 µM | [3] 18.5 µM | [4] 16.8 µM | [5] 18.7 µM | [6] 15.8 µM | [7] 17.8 µM | [8] 14.6 µM | [9] 27.5 µM | [10] 18.7 µM | [11] 20.9 µM | [12] 17.8 µM

COC[C@H](C)/N=C/N1CCc2ccccc2C1(Cc1ccccc1)Cc1ccccc1
inactive: [2] 13.5 µM | [14] 24.8 µM | [3] 5.07 µM | [4] 13.6 µM | [5] 10.3 µM | [6] 17.2 µM | [7] 22.1 µM | [8] 12.8 µM | [10] 18.2 µM | [11] 10.6 µM | [12] 22.6 µM

Cc1ccc(NC(=O)C(=O)C2C(=O)NC(=O)NC2=O)cc1C
inactive: [2] > 100 µM | [13] > 100 µM | [14] > 100 µM | [3] > 100 µM | [4] > 100 µM | [5] > 100 µM | [6] > 100 µM | [7] > 100 µM | [8] > 100 µM | [9] > 100 µM | [10] > 100 µM | [11] > 100 µM | [12] > 100 µM

CCc1ccc(/N=C\c2cc(OC)c(OC)c(OC)c2)cc1
inactive: [1] > 100 µM | [14] > 100 µM | [3] > 100 µM | [4] > 100 µM | [5] > 100 µM | [6] > 100 µM | [7] > 100 µM | [8] > 100 µM | [9] > 100 µM | [10] > 100 µM | [11] > 100 µM | [12] 10.9 µM

COc1ccc(/C=C/C(=O)c2c(-c3ccccc3)nn(C)c(=O)c2N2CCCCC2)cc1
inactive: [2] 16.7 µM | [3] 14.9 µM | [5] 20.7 µM | [6] 14 µM | [10] 17.5 µM | [12] 24.5 µM

O=C1CC23CC(=O)CC2(C1)c1ccccc1C3=O (stereo not drawn)
inactive: [2] > 100 µM | [13] > 100 µM | [14] > 100 µM | [3] > 100 µM | [4] > 100 µM | [5] > 100 µM | [6] > 100 µM | [7] > 100 µM | [9] > 100 µM | [10] > 100 µM | [11] > 100 µM | [12] > 100 µM

CC(=O)OC1[C@H]2c3cc4c(cc3CN3CCC(=C[C@@H]1O)C23)OCO4 (stereo partly drawn)
inactive: [2] > 100 µM | [13] 34.8 µM | [14] > 100 µM | [3] > 100 µM | [4] 44.4 µM | [5] 44.5 µM | [6] > 100 µM | [7] > 100 µM | [10] > 100 µM | [12] > 100 µM

COC(=O)c1onc(-c2c(OC)cc(OC)cc2OC)c1C(=O)OC
inactive: [2] > 100 µM | [13] > 100 µM | [14] > 100 µM | [3] > 100 µM | [4] > 100 µM | [5] > 100 µM | [6] > 100 µM | [7] > 100 µM | [8] > 100 µM | [9] > 100 µM | [11] > 100 µM | [12] > 100 µM

O=C(Nc1ccc(Cl)cc1C(=O)O)c1ccc([N+](=O)[O-])cc1
inactive: [1] 9.77 µM | [2] 18.7 µM | [13] 11.2 µM | [14] 10.2 µM | [3] 18.9 µM | [4] 18.4 µM | [5] 24.3 µM | [7] 22.4 µM | [8] 18.6 µM | [9] 22.5 µM | [10] 14.5 µM | [11] 3.72 µM | [12] 29.7 µM

Cc1cc2c(c(N)c1C)C(=O)c1ccccc1C2=O
inactive: [1] 19.7 µM | [2] > 100 µM | [13] 40.6 µM | [14] 13.9 µM | [3] 49.5 µM | [4] 11.1 µM | [5] 29.2 µM | [8] 17.5 µM | [9] > 100 µM | [10] 12.5 µM | [11] 66.8 µM | [12] 59.7 µM

CCOC(=O)Nn1c(C)cc(C(=O)OC)c1C
inactive: [1] > 100 µM | [2] > 100 µM | [13] > 100 µM | [14] > 100 µM | [3] > 100 µM | [4] > 100 µM | [5] > 100 µM | [6] > 100 µM | [7] > 100 µM | [9] > 100 µM | [10] > 100 µM | [11] > 100 µM | [12] > 100 µM

Cc1cc2cc(Cl)ccc2nc1C(=O)c1ccccc1
inactive: [2] > 100 µM | [13] > 100 µM | [14] 43.1 µM | [4] > 100 µM | [5] > 100 µM | [6] > 100 µM | [7] > 100 µM | [8] > 100 µM | [9] > 100 µM | [10] > 100 µM | [11] > 100 µM | [12] > 100 µM

O=C1C2c3[nH]c4ccccc4c3[C@@H]3CCCCCCCCCCC3C2C(=O)N1c1ccccc1 (stereo partly drawn)
inactive: [2] 23 µM | [13] 27.5 µM | [3] 27.6 µM | [4] 18.2 µM | [5] 15.3 µM | [6] 17.5 µM | [7] 16 µM | [8] 17.6 µM | [9] > 100 µM | [10] 10.1 µM | [12] 15.2 µM

C[N+]1(C)C/C(=C\c2ccncc2)C(=O)/C(=C/c2ccncc2)C1
inactive: [1] > 100 µM | [2] > 100 µM | [13] > 100 µM | [14] > 100 µM | [3] > 100 µM | [4] > 100 µM | [5] > 100 µM | [7] > 100 µM | [8] > 100 µM | [9] > 100 µM | [10] > 100 µM | [12] 52.7 µM
